In patent US4988681A, “Phosphinic acid derivatives” (Banyu Pharmaceutical Co., Ltd., priority 1988, dated 1991):

Test system: ddY mice
Assay: Acute toxicity test in mice
Type: in vivo, Male ddY mice
Conditions: 7 days
Protocol: (5) Acute toxicity test in mice
Male ddY mice (4 week-old; body weight 24-26 g) were divided into groups each consisting of 5 animals. The compound No. 2 was intravenously administered to a first group in a dose of 2,000 mg/kg. The compound No. 2 was orally administered to a second group in a dose of 4,000 mg/kg. After the administration, the incidence of death was observed over 7 days after the administration, and the results are shown in Table 5.

## CC(C)CP(=O)(O)C/C(=C\C1CCCCC1)C(=O)O [Compound No. 2, (Z)-3-cyclohexyl-2-(hydroxyisobutylphosphinoyl)methylpropenoic acid]
i.v. 2,000 mg/kg
  Mortality, number of dead mice versus number of mice tested: 0/5
p.o. 4,000 mg/kg
  Mortality, number of dead mice versus number of mice tested: 0/5
